From ChEMBL document CHEMBL2062444, “The Rhodadyns, a New Class of Small Molecule Inhibitors of Dynamin GTPase Activity” (ACS Med Chem Lett, 2012) come the findings set out here.

Calls of active or inactive are those of the source.

Assay [1] is described as follows: Inhibition of sheep dynamin 1 GTPase activity after 30 mins by malachite-green method. Also on record: species or system Ovis aries.
For another assay, the species on record is Homo sapiens. In words: Inhibition of clathrin at 100 uM.
A further assay has as its target T1, Dynamin-1 (Homo sapiens) (UniProt Q05193).
T1 sequence (whole entry): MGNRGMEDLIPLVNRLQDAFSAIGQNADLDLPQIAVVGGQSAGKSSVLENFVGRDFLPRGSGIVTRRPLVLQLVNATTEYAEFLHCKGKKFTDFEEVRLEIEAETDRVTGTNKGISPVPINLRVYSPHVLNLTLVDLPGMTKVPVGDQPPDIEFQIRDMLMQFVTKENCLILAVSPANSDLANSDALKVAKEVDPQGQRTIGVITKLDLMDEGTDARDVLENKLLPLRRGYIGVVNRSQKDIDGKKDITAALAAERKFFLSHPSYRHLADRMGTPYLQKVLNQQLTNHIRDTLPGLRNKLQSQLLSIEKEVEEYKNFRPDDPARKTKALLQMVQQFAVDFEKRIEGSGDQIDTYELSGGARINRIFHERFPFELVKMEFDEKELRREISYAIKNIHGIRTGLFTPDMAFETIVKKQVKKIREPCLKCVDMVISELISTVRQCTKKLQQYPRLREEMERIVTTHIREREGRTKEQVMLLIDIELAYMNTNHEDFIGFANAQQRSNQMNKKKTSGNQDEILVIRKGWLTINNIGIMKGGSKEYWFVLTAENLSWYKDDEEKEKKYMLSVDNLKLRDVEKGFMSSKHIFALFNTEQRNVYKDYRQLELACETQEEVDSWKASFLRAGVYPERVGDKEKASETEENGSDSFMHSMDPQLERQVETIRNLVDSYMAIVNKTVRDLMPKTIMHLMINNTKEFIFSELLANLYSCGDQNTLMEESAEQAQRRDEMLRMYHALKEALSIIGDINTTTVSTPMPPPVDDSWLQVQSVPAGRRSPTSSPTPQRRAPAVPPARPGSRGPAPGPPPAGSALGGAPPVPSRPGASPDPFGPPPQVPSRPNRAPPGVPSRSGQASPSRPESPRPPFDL
In words: Inhibition of dynamin1-mediated endocytosis in human U2OS cells assessed as inhibition of Texas red-Tf uptake incubated up to 300 uM for 30 mins prior to Texas red-Tf addition measured after 8 mins by receptor-mediated endocytosis assay. It is filed as cell-based.

Usually IC50 stands for the midpoint of a concentration-inhibition curve. In the case of `O=C(O)CN1C(=O)/C(=C/c2cc(Cl)cc(Cl)c2)SC1=S`, in assay [1], the IC50 amounted to 5.5 µM. In addition, the inhibition entry in the assay listed under Homo sapiens and at Dynamin-1 (Homo sapiens) was “inactive” in each case.
Consider `CCN1C(=O)/C(=C/c2cc(Cl)cc(Cl)c2)SC1=S`, for which half-maximal inhibition in assay [1] (IC50) required 3.1 µM. In addition, the inhibition entry in the assay filed under Homo sapiens and at Dynamin-1 (Homo sapiens) was “inactive” in each case.
As for `C=CCN1C(=O)/C(=C/c2cc(Cl)cc(Cl)c2)SC1=S`, the IC50 in assay [1] came out at 31 µM. For the same molecule, the inhibition entry in the assay listed under Homo sapiens and at Dynamin-1 (Homo sapiens) was “inactive” throughout.
